Data published in paper PMC8011991 (Journal of medicinal chemistry, 2020).
“Also recorded” adds a separate entry of the source.

Legend:
[1] = tested on: NL4–3 Env pseudo-typed HIV-1 virus; assay: ELISA-based quantification of capsid; type: cell-based; settings: 10 μM compound
[2] = target: recombinant HIV-1 RT (Human immunodeficiency virus type 1 group M subtype B, UniProt P03366); assay: Recombinant HIV-1 RT inhibitory assay; type: biochemical; settings: at 0.2 μM
[3] = in vitro; settings: human, microsomes
[4] = In vivo pharmacokinetics in rats; settings: rat, iv 2 mg/kg
[5] = tested on: Kunming mice; assay: Single-dose acute toxicity in mice; settings: intragastric

Row | SMILES | increase of CA/p24 content of the produced virus compared to the DMSO control [1] | CLint scaled [3] [mL/min/kg] | other results
1 | COc1ccc(N(C)C(=O)[C@H](Cc2ccccc2)NC(=O)CN2CCN(S(=O)(=O)c3ccc(N)cc3)CC2=O)cc1 [Compound 11l, (S)-2-(2-(4-((4-aminophenyl)sulfonyl)-2-oxopiperazin-1-yl)acetamido)-N-(4-methoxyphenyl)-N-methyl-3-phenylpropanamide] | 0–20% | 308 | RT activity as compared to the DMSO control [2]: 95±15%; V [4]: 5752.4 mL/kg; death after single dose ([5]; 1000 mg/kg): No death was observed; acute toxicity / tolerability ([5]; single dose 1000 mg/kg, one week): no acute toxicity; also recorded: well-tolerated
2 | C[C@]12CC[C@H]3[C@@H](CCC4=CC(=O)CC[C@@]43C)[C@@H]1CC[C@@H]2O [Testosteron^e, Testosterone] |  | 85.7 | CLint(mic) (HLM 0.5 mg protein/mL): 95.2 µL/min/mg; Remaining (T=60min) (HLM 0.5 mg protein/mL, 60 min): 6.1%; Remaining (NCF=60min) (no cofactor (no NADPH), 60 min): 84.0%
3 | COc1ccc(N(C)C(=O)[C@H](Cc2ccccc2)NC(=O)CN2C(=O)Nc3ccccc3S2(=O)=O)cc1 [Compound 8a, (S)-2-(2-(1,1-dioxido-3-oxo-3,4-dihydro-2H-benzo[e][1,2,4]thiadiazin-2-yl)acetamido)-N-(4-methoxyphenyl)-N-methyl-3-phenylpropanamide] | 0–20% |  | 
4 | Cc1[nH]c2ccccc2c1CC(=O)N[C@@H](Cc1ccccc1)C(=O)N(C)c1ccccc1 [PF-74, reference compound] | around 40% | 972 | 
5 | COc1ccc(N(C)C(=O)[C@H](Cc2ccccc2)NC(=O)CNS(=O)(=O)c2cccc(F)c2)cc1 [Compound 6k, (S)-2-(2-((3-fluorophenyl)sulfonamido)acetamido)-N-(4-methoxyphenyl)-N-methyl-3-phenylpropanamide] | 0–20% |  | 
6 | O=C(O)Cc1ccccc1Nc1c(Cl)cccc1Cl [Diclofenac] |  | 84.3 | 
